Reference: patent US20070074295A1 (priority 2000, published 2007)

What was measured:
rats = assay: Effect of haloperidol and clozapine on PCP induced hypofunction: LCGU; type: in vivo, rat; conditions: i.p. PCP 2.58 mgkg^−1; minipump vehicle, clozapine 20 or haloperidol 1 mgkg^−1/day; day 29
Source text: The effect of antipsychotics on the positive symptoms is less well studied regarding imaging studies.

freely moving rats = assay: Induction and maintenance of PCP-induced hypofunction: LCGU by 14C-2-deoxyglucose autoradiography; type: in vivo, rat
Description: An initial treatment period of intraperitoneal (i.p.) injections once daily for 5 days was carried out, followed by a maintenance schedule of i.p. injections three times weekly (every 60 hours) for a further 21 days.
Intermittent exposure to PCP during the maintenance phase of the model was favoured due to the long half life of the drug within brain tissue (Misra, A. L. et al). […] As a comparison to the present model, the inventors also investigated the effect of previously published subchronic treatment with PCP (Jentsch, J. D. et al) using quantitative C-2-deoxyglucose autoradiography (Sokoloff, L.)
Local cerebral glucose utilisation (LCGU) was measured using an adaptation of the original method for freely moving rats (Crane, A. M. et al) 72 hours after the initial induction phase (day 8) and 72 hours after the induction phase followed by the maintenance phase (day 29). LCGU was measured 72 hours after the last exposure to PCP so the effects of PCP on LCGU would be independent of the acute effects of the drug. […] Thus, using a dose of 2.59 mgkg^−1 the inventors had established a novel treatment paradigm which mimics the findings of human imaging studies in schizophrenic patients.

c1ccc(C2(N3CCCCC3)CCCCC2)cc1 [PCP, phencyclidine]
LCGU, Au layer I (rats): 138 ± 3 μmol/100 g/min | LCGU, Au layers II, III&IV (rats): 174 ± 4 μmol/100 g/min | LCGU, Au layers V & VI (rats): 120 ± 2 μmol/100 g/min | LCGU, AuD layer I (rats): 126 ± 5 μmol/100 g/min | LCGU, AuD layers II, III&IV (rats): 141 ± 6 μmol/100 g/min | LCGU, AuD layers V & VI (rats): 105 ± 2 μmol/100 g/min | LCGU, CA1 molecular layer (rats): 93 ± 2 μmol/100 g/min | LCGU, CA1 pyramidal cell layer (rats): 63 ± 2 μmol/100 g/min | LCGU, CA1 stratum oriens (rats): 59 ± 2 μmol/100 g/min | LCGU, CA1 stratum radiatum (rats): 67 ± 2 μmol/100 g/min | LCGU, CA3 molecular layer (rats): 90 ± 2 μmol/100 g/min | LCGU, CA3 pyramidal cell layer (rats): 69 ± 2 μmol/100 g/min | LCGU, CA3 stratum oriens (rats): 60 ± 3 μmol/100 g/min | LCGU, CA3 stratum radiatum (rats): 70 ± 3 μmol/100 g/min | LCGU, DLL (rats): 89 ± 4 μmol/100 g/min | LCGU, MD (rats): 133 ± 6 μmol/100 g/min | LCGU, PrL layer I (rats): 109 ± 4 μmol/100 g/min | LCGU, PrL layers II & III (rats): 127 ± 5 μmol/100 g/min | LCGU, PrL layers V & VI (rats): 97 ± 3 μmol/100 g/min | LCGU, Rt (rats): 79 ± 2 μmol/100 g/min | LCGU, VLL (rats): 98 ± 6 μmol/100 g/min | LCGU, cochlear nucleus (rats): 92 ± 4 μmol/100 g/min | LCGU, mO layer I (rats): 104 ± 5 μmol/100 g/min | LCGU, mO layers II & III (rats): 121 ± 6 μmol/100 g/min | LCGU, mO layers V & VI (rats): 113 ± 6 μmol/100 g/min | maintenance of metabolic hypofunction by second phase of the model (freely moving rats; 0.86 mgkg^−1 PCP): not, however, maintained | LCGU, Au layer I (freely moving rats; 0.86 mgkg^−1 PCP i.p., day 8): 127 ± 2 μmol/100 g/min | LCGU, Au layers II, III&IV (freely moving rats; 0.86 mgkg^−1 PCP i.p., day 8): 152 ± 3 μmol/100 g/min | LCGU, Au layers V & VI (freely moving rats; 0.86 mgkg^−1 PCP i.p., day 8): 114 ± 4 μmol/100 g/min | LCGU, AuD layer I (freely moving rats; 0.86 mgkg^−1 PCP i.p., day 8): 126 ± 3 μmol/100 g/min | LCGU, AuD layers II, III&IV (freely moving rats; 0.86 mgkg^−1 PCP i.p., day 8): 151 ± 4 μmol/100 g/min | LCGU, AuD layers V & VI (freely moving rats; 0.86 mgkg^−1 PCP i.p., day 8): 106 ± 2 μmol/100 g/min | LCGU, DLL (freely moving rats; 0.86 mgkg^−1 PCP i.p., day 8): 91 ± 4 μmol/100 g/min | LCGU, MD (freely moving rats; 0.86 mgkg^−1 PCP i.p., day 8): 112 ± 4 μmol/100 g/min | LCGU, PrL layer I (freely moving rats; 0.86 mgkg^−1 PCP i.p., day 8): 132 ± 6 μmol/100 g/min | LCGU, PrL layers II & III (freely moving rats; 0.86 mgkg^−1 PCP i.p., day 8): 150 ± 7 μmol/100 g/min | LCGU, PrL layers V & VI (freely moving rats; 0.86 mgkg^−1 PCP i.p., day 8): 115 ± 3 μmol/100 g/min | LCGU, Rt (freely moving rats; 0.86 mgkg^−1 PCP i.p., day 8): 106 ± 2 μmol/100 g/min | LCGU, VLL (freely moving rats; 0.86 mgkg^−1 PCP i.p., day 8): 98 ± 5 μmol/100 g/min | LCGU, cochlear nucleus (freely moving rats; 0.86 mgkg^−1 PCP i.p., day 8): 107 ± 3 μmol/100 g/min | LCGU, mO layer (freely moving rats; 0.86 mgkg^−1 PCP i.p., day 8): 110 ± 2 μmol/100 g/min | LCGU, mO layers II & III (freely moving rats; 0.86 mgkg^−1 PCP i.p., day 8): 127 ± 2 μmol/100 g/min | LCGU, mO layers V & VI (freely moving rats; 0.86 mgkg^−1 PCP i.p., day 8): 129 ± 5 μmol/100 g/min | LCGU, Au layer I (freely moving rats; 0.86 mgkg^−1 PCP i.p., day 29): 167 ± 14 μmol/100 g/min | LCGU, Au layers II, III&IV (freely moving rats; 0.86 mgkg^−1 PCP i.p., day 29): 189 ± 12 μmol/100 g/min | LCGU, Au layers V & VI (freely moving rats; 0.86 mgkg^−1 PCP i.p., day 29): 137 ± 10 μmol/100 g/min | LCGU, AuD layer I (freely moving rats; 0.86 mgkg^−1 PCP i.p., day 29): 159 ± 11 μmol/100 g/min | LCGU, AuD layers II, III&IV (freely moving rats; 0.86 mgkg^−1 PCP i.p., day 29): 178 ± 10 μmol/100 g/min
